These results are taken from ChEMBL document CHEMBL5291721, “A preclinical secondary pharmacology resource illuminates target-adverse drug reaction associations of marketed drugs” (Nat Commun, 2023).

The target in assay [1] is T1, Alpha-1A adrenergic receptor (Homo sapiens, UniProt P35348).
T1 sequence (P35348 whole entry): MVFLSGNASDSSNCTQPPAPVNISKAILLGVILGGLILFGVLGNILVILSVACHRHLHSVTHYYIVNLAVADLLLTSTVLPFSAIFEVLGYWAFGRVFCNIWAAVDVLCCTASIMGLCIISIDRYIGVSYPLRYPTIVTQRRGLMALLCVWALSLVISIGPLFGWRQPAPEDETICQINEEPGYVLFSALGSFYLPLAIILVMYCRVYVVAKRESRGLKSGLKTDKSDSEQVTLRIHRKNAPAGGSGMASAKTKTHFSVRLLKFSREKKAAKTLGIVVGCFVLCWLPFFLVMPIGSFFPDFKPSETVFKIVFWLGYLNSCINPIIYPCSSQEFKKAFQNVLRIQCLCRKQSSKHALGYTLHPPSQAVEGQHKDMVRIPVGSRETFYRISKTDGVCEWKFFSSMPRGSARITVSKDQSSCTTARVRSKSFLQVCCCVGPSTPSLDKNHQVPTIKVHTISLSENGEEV
Format: functional, cell-based.

In assay [2] the target is Voltage-dependent N-type calcium channel subunit alpha-1B (Rattus norvegicus, UniProt Q02294). Format: functional.
Voltage-dependent N-type calcium channel subunit alpha-1B, sequence (Q02294 whole entry): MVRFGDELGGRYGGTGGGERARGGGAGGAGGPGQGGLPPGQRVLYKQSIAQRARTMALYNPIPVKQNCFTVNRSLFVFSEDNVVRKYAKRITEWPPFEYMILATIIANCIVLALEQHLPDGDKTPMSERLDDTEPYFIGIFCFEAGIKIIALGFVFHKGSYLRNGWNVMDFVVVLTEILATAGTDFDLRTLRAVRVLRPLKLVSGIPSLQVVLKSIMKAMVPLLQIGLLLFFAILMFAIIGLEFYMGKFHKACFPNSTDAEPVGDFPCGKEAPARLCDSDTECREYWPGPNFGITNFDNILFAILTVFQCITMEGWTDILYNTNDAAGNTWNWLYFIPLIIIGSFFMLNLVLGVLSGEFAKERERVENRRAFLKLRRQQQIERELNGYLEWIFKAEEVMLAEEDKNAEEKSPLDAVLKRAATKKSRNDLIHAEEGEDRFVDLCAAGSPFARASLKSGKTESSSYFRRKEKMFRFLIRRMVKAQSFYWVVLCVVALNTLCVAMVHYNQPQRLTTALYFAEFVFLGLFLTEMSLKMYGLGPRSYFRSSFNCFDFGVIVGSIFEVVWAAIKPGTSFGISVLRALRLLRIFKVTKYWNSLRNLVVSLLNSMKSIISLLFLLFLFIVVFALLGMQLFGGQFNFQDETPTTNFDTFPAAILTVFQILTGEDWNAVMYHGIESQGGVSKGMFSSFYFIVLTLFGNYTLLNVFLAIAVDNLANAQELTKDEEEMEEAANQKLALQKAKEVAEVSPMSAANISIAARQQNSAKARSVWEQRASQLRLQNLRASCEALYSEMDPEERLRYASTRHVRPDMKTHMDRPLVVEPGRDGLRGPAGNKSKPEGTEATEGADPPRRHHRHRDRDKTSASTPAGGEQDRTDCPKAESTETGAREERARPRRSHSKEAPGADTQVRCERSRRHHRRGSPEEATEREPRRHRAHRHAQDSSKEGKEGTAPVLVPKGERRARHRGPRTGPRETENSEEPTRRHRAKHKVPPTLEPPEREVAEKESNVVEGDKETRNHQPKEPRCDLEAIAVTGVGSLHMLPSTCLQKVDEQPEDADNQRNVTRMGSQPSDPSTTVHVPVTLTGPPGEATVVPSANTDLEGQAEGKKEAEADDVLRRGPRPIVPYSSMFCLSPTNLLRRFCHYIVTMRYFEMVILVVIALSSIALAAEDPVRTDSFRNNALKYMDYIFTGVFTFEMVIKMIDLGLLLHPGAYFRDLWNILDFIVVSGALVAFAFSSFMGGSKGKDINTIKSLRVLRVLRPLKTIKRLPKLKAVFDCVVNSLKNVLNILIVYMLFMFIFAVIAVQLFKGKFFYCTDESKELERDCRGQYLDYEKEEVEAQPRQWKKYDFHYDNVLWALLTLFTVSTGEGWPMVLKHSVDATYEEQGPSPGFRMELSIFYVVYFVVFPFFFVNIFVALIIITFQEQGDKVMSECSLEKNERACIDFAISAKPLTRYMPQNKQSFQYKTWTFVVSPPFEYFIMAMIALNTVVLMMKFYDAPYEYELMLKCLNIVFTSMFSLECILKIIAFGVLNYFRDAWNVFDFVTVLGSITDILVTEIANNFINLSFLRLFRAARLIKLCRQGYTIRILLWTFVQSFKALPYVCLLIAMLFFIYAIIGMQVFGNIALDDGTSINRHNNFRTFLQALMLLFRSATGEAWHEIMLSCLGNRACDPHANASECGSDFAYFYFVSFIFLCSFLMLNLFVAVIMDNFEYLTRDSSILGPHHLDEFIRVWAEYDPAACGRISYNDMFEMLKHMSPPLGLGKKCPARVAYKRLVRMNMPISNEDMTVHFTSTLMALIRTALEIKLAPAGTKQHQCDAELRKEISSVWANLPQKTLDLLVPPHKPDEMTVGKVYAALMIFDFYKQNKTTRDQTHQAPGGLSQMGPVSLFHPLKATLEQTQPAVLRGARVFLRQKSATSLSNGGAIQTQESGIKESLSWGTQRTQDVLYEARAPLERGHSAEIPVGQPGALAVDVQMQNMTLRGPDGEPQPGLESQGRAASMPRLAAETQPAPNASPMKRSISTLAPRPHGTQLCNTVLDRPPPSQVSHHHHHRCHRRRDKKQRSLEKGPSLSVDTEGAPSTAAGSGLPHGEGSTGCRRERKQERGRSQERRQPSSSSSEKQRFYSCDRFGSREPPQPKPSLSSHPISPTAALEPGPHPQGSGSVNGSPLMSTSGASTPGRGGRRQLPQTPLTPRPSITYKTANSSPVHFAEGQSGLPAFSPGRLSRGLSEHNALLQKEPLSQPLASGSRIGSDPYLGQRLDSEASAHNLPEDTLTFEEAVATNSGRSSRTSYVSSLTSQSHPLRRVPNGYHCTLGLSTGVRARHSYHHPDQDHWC
The next assay deals with Cannabinoid receptor 1 (Homo sapiens, UniProt P21554).
Cannabinoid receptor 1, sequence (P21554 whole entry): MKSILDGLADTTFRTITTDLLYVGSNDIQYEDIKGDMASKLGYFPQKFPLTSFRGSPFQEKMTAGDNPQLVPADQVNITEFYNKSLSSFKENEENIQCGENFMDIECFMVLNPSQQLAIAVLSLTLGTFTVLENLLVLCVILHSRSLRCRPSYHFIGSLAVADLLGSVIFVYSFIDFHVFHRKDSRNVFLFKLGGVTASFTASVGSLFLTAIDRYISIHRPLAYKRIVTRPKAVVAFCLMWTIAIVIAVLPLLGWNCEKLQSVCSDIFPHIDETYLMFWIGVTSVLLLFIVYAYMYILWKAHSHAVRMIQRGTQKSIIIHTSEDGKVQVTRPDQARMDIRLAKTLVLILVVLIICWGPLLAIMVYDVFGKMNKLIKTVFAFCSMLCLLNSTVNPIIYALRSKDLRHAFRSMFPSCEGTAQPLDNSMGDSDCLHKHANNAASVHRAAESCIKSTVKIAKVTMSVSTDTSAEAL
Assay [3] has as its target T2, Amine oxidase [flavin-containing] A (Homo sapiens, UniProt P21397).
T2 sequence (P21397 whole entry): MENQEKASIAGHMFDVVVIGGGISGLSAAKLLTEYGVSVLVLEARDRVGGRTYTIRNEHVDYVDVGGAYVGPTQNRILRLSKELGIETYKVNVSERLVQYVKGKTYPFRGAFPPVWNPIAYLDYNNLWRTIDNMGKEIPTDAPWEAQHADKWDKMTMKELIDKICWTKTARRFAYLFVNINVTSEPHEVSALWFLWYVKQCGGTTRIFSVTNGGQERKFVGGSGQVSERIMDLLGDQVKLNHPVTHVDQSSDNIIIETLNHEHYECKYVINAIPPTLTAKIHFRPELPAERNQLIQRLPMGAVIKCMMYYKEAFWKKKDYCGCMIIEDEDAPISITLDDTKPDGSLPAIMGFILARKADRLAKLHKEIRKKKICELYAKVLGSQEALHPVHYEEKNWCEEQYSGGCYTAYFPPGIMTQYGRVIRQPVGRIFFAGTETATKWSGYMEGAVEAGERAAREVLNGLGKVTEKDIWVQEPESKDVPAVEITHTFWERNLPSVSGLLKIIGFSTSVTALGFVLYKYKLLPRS
Format: functional.

Assay [4] has as its target T3, Alpha-2A adrenergic receptor (Homo sapiens, UniProt P08913).
T3 sequence (P08913 whole entry): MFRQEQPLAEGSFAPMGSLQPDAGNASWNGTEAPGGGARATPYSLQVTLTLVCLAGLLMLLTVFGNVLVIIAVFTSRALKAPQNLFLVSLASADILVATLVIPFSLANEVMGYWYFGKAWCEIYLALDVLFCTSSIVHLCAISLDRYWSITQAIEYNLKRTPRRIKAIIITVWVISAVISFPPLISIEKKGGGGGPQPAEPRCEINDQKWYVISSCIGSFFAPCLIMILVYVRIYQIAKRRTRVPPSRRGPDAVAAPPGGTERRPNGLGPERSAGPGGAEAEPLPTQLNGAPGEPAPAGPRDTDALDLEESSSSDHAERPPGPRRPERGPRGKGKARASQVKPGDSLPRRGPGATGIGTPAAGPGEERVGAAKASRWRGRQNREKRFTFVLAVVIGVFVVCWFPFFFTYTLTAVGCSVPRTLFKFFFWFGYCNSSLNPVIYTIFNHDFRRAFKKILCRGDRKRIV
Format: functional, cell-based.

The target in another assay is D(1A) dopamine receptor (Homo sapiens, UniProt P21728).
D(1A) dopamine receptor, sequence (P21728 whole entry): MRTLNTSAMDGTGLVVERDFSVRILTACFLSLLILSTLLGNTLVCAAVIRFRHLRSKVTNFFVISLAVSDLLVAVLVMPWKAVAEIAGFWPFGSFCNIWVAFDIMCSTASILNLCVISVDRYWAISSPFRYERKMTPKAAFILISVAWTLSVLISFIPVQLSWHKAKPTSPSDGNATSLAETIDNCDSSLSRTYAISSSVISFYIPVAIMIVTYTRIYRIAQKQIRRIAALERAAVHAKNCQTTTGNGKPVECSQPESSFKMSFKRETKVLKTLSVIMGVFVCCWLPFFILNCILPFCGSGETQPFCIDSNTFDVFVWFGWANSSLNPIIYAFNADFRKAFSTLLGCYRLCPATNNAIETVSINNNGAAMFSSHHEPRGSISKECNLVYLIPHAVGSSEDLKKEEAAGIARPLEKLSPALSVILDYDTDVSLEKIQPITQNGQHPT
In assay [5] the target is Beta-2 adrenergic receptor (Homo sapiens, UniProt P07550). Format: functional, cell-based.
Beta-2 adrenergic receptor, sequence (P07550 whole entry): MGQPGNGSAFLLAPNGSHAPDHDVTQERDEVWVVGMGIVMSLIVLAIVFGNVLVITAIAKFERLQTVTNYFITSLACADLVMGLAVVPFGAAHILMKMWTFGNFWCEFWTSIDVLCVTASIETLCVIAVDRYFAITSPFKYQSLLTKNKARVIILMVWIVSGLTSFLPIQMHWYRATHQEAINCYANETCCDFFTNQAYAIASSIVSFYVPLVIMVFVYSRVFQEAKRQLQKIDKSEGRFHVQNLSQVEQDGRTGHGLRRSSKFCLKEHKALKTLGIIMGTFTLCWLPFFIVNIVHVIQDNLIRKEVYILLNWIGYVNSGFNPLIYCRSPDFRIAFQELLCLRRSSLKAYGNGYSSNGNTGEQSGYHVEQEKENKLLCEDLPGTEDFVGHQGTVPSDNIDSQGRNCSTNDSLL
The target in assay [6] is Gamma-aminobutyric acid receptor subunit alpha-1 (Rattus norvegicus, UniProt P62813). Format: functional.
Gamma-aminobutyric acid receptor subunit alpha-1, sequence (P62813 whole entry): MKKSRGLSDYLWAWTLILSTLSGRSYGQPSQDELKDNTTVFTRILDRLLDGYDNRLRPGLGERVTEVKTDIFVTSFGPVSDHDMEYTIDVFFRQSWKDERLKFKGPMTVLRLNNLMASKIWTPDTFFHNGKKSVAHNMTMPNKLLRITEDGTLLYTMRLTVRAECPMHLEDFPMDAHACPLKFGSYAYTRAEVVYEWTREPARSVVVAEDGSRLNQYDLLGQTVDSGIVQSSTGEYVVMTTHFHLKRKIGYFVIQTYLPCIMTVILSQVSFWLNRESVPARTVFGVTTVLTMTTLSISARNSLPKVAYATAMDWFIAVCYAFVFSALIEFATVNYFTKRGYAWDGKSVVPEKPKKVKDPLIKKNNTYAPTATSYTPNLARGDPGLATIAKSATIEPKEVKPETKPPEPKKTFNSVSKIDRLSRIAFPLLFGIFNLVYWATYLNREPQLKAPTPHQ
The target in assay [7] is T4, Muscarinic acetylcholine receptor M2 (Homo sapiens, UniProt P08172).
T4 sequence (P08172 whole entry): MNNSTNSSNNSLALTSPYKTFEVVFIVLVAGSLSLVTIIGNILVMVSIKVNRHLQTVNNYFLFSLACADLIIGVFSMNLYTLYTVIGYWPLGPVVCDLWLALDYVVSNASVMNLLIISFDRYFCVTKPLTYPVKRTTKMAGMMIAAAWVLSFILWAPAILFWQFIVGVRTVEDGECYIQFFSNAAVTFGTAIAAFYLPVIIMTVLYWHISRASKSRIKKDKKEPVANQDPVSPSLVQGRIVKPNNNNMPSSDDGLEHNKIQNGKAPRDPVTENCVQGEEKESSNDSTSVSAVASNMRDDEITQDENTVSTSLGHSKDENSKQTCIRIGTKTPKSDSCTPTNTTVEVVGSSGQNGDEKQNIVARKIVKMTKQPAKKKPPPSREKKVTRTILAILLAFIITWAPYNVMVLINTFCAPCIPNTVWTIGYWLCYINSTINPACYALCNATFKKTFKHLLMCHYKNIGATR

Assay [8] has as its target T5, Alpha-2B adrenergic receptor (Homo sapiens, UniProt P18089).
T5 sequence (P18089 whole entry): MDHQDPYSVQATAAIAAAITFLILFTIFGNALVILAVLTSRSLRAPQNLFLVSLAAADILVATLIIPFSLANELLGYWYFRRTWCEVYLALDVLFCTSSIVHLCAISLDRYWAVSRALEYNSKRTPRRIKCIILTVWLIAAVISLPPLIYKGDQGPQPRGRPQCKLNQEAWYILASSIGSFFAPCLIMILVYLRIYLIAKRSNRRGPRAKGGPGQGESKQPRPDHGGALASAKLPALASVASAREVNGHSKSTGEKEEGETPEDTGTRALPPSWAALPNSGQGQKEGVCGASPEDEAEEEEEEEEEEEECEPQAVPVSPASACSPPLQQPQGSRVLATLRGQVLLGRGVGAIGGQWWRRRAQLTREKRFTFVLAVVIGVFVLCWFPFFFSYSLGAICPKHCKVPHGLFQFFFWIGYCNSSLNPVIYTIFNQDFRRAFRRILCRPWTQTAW

Assay [9] concerns the target 5-hydroxytryptamine receptor 2A (Homo sapiens, UniProt P28223). Format: functional, cell-based.

By AC50 is commonly meant the midpoint of the concentration-response curve, whichever way the signal moves.
Further: assay procedure not described here.

5-hydroxytryptamine receptor 2A, sequence (P28223 whole entry): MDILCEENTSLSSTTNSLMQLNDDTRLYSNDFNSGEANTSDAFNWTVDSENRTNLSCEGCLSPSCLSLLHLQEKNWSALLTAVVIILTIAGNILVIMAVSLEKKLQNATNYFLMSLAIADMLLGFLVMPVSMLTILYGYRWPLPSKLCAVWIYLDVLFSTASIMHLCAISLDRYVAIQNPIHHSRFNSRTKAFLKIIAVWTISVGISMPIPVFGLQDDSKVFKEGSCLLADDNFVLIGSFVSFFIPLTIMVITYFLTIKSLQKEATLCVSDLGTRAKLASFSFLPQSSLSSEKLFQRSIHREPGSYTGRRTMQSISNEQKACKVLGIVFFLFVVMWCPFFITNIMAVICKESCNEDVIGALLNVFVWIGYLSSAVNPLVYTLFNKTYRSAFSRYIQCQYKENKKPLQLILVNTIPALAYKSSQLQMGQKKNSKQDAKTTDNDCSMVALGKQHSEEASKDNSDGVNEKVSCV

On to `Cc1nnc2n1-c1ccc(Cl)cc1C(c1ccccc1)=NC2` [ALPRAZOLAM], for which the AC50 is over 30 µM in [1]; over 10 µM in assay [2]; 3.35 µM on Cannabinoid receptor 1; over 10 µM in assay [3]; over 10 µM in assay [4]; over 10 µM on D(1A) dopamine receptor. For the same molecule, the AC50 in assay [5] was over 30 µM; in assay [6], 0.0042 µM; in [7] it was over 10 µM.

Take `CC(NC(C)(C)C)C(=O)c1cccc(Cl)c1` (stereo not drawn) [BUPROPION]: the AC50 in assay [1] was over 30 µM; in assay [2] it was over 10 µM; on Cannabinoid receptor 1, over 10 µM; in [3], over 10 µM; in assay [4], over 10 µM; at D(1A) dopamine receptor, over 10 µM. Besides, the half-maximal activity concentration (AC50) in assay [5] was over 30 µM; in assay [7], over 10 µM.

On to `Oc1cc(O)c2c(c1)O[C@H](c1ccc(O)c(O)c1)[C@@H](O)C2` [CIANIDANOL], for which the half-maximal activity concentration (AC50) is over 30 µM in [1]; over 10 µM in assay [2]; over 10 µM on Cannabinoid receptor 1; over 10 µM in assay [3]; over 10 µM in assay [4]; over 10 µM at D(1A) dopamine receptor. Besides, the half-maximal activity concentration (AC50) in assay [8] is over 10 µM; in assay [5] it was over 30 µM; in [6], over 10 µM; in [7], over 10 µM; in [9], over 30 µM.

On to `O=C1CN=C(c2ccccc2Cl)c2cc([N+](=O)[O-])ccc2N1` [CLONAZEPAM], for which the concentration at half-maximal activity (AC50) in [1] was over 30 µM; in assay [2], over 10 µM; at Cannabinoid receptor 1 it was over 10 µM; in assay [3], over 10 µM; in [4], over 10 µM; on D(1A) dopamine receptor it was over 10 µM. The AC50 was over 30 µM in [5], 0.0025 µM in assay [6] and over 10 µM in assay [7].

For `CCN(CC)C(C)C(=O)c1ccccc1` (stereo not drawn) [DIETHYLPROPION], the AC50 in assay [1] is over 30 µM; in assay [2], over 10 µM; on Cannabinoid receptor 1 it was over 10 µM; in [3] it was over 10 µM; in assay [4], over 10 µM; at D(1A) dopamine receptor, over 10 µM. Further, the concentration at half-maximal activity (AC50) was 13 µM in assay [8], over 30 µM in assay [5], over 10 µM in [6] and over 10 µM in assay [7].

`Cc1ccc(-c2ncc(Cl)cc2-c2ccc(S(C)(=O)=O)cc2)cn1` [ETORICOXIB]: the AC50 in assay [1] is over 30 µM; in assay [2] it was over 10 µM; at Cannabinoid receptor 1, over 10 µM; in [3], over 10 µM; in assay [4] it was over 10 µM; on D(1A) dopamine receptor, over 10 µM. Moreover, the half-maximal activity concentration (AC50) in assay [8] was over 10 µM; in assay [5] it was over 30 µM; in [6] it was over 10 µM; in [7] it was over 10 µM; in assay [9], over 30 µM.

`CN1C2CCCC1CC(NC(=O)c1nn(C)c3ccccc13)C2` (stereo not drawn) [GRANISETRON]: the AC50 in assay [1] is over 30 µM; in [2] it was over 10 µM; at Cannabinoid receptor 1, over 10 µM; in [3], over 10 µM; in [4], over 10 µM; at D(1A) dopamine receptor, over 10 µM. For the same molecule, the concentration at half-maximal activity (AC50) is over 30 µM in [5], over 10 µM in assay [6] and over 10 µM in assay [7].

For `CC1NCCOC1c1ccccc1` (stereo not drawn) [PHENMETRAZINE], the AC50 (in [2]; at Cannabinoid receptor 1; in [3]; in [4]; at D(1A) dopamine receptor; in assay [8]) was over 10 µM each time. In addition, the concentration at half-maximal activity (AC50) in assay [5] was over 30 µM; in assay [6] it was over 10 µM; in assay [7], over 10 µM; in assay [9] it was over 30 µM.

For `CC(C)(N)Cc1ccccc1` [PHENTERMINE], the concentration at half-maximal activity (AC50) in assay [1] is over 30 µM; in assay [2], over 10 µM; at Cannabinoid receptor 1, over 10 µM; in [3] it was over 10 µM; in [4] it was over 10 µM; on D(1A) dopamine receptor, over 10 µM. The AC50 in [8] is over 10 µM; in [5], over 30 µM; in [6] it was over 10 µM; in assay [7], over 10 µM; in assay [9], over 30 µM.
